From patent publication US6737424B2 (Zeneca Ltd., priority 1995, dated 2004)
pIC50: −log10 of the molar value. Read-outs that look alike come from different tables or passages of the source.

Key:
[1] = target: T1, glycine receptor of the NMDA receptor complex (Rattus norvegicus, UniProt P35439); experiment: [3H]-glycine binding assay (Test A)
T1 construct: Freshly dissected cortices and hippocampi are homogenized in 0.32 M sucrose; from tissue; host or cells: rat cortex and hippocampus synaptic membranes
Source text: The actions of compounds according to the invention as antagonists at the glycine receptor of the NMDA receptor complex can be shown by one or more standard tests such as the [^3H]-glycine binding assay (Test A) and by in vivo tests such as the red nucleus test (Test B) and the Rat Middle Cerebral Artery test (Test C). These tests confirm that compounds of the invention function as NMDA receptor antagonists in vitro and in vivo. Certain compounds of the invention are potent NMDA receptor antagonists.
In the [^3H]-glycine binding assay, neuronal synaptic membranes are prepared from adult (about 250 g) male Sprague-Dawley rats. Freshly dissected cortices and hippocampi are homogenized in 0.32 M sucrose (110 mg/mL). Synaptosomes are isolated by centrifugation (1000×g, 10 min), the supernatant is pelleted (20,000×g, 20 min) and resuspended in double-distilled water. The suspension was centrifuged for 20 minutes at 8,000×g. The resulting supernatant and buffy coat are washed twice (48,000×g, 10 min) and resuspended in double-deionized water. The final pellet is quickly frozen (dry ice/ethanol bath) under double-deionized water and stored at −70° C.
On the day of the experiment, thawed synaptic membranes are homogenized with a Brinkmann Polytron (Brinkmann Instruments, Westbury, N.Y.) tissue homogenizer in 50 millimolar tris(hydroxymethyl)aminomethane citrate, pH 7.1. The membranes are incubated with 0.04% Sufact-AMPS X100 (Pierce, Rockford, Ill.) in buffer for 20 minutes at 37° C. and washed six times by centrifugation (48,000×g, 10 min) and resuspended in buffer. The final pellet is homogenized at 200 mg wet weight/mL of the buffer for the binding assay.
For [^3H]-glycine binding at the N-methyl-D-aspartate receptor, 20 nanomolar [^3H]-glycine (40-60 Ci/mmol, New England Nuclear, Boston, Mass.) is incubated with the membranes suspended in 50 millimolar tris(hydroxymethyl)aminomethane citrate, pH 7.1 for 30 minutes at 4° C. Glycine, 1 millimolar, is used to define the nonspecific binding. Bound [^3H]-glycine is isolated from free using a Brandel (Biomedical Research and Development Laboratories, Gaithersburg, Md.) cell harvester for vacuum filtration over glass fiber filters (Whatman GF/B from Brandel, Gaithersburg, Md.) presoaked in 0.025% polyethylenimine. The samples retained on the glass fiber filters are rinsed 3 times with a total of 2.5 mL ice cold buffer. Radioactivity is estimated by liquid scintillation counting. IC50 values are obtained from a least-squares regression of a logit-log transformation of the data.

[2] = test system: permanent middle cerebral artery (MCA) occlusion, focal ischemia; experiment: Rat Middle Cerebral Artery test (Test C); type: in vivo; details: I.V. dose of 20 mgs/kg/hr, SHR rats, 24 hours after MCA/common carotid artery occlusion
Experimental: Male SHR rats weighing 280-320 g are used for these studies. The method used for permanent middle cerebral artery (MCA) occlusion is as described by Brint et al (1988). […] Following occlusions, drugs are administered intravenously via jugular catheter. Twenty-four hours after MCA/common carotid artery occlusion, the animals are sacrificed and their brains quickly removed. Coronal sections of 1 mm thickness are cut using a vibratome and stained with 2,3,5-triphenyl-2H-tetrazolium chloride (TTC) dye. Following staining, necrotic tissue is readily distinguished from the intact brain and the area of infarcted cortex can be traced on an image analyzer. The infarct volume for each section is quantified with an image analyzer, and the total infarct volume is calculated with a program that summed all interval volume. See S. Brint et al. J. Cerebral Blood Flow 8:474-485 (1988). The statistical analysis of the difference between the volume of ischemic damage in the vehicle control and drug-treated animals is analyzed by Student's t-test. […] For example, the compound of example 4 at an I.V. dose of 20 mgs/kg/hr caused an infarct % volume change of −22%.

[3] = test system: NMDA-induced excitatory response of red nucleus cells; experiment: Red nucleus test (Test B); type: in vivo, rat; details: anesthetized rats
Experimental: The purpose of this test is to determine the effects of intravenously administered glycine antagonists on the NMDA-induced excitatory response of red nucleus cells.
The procedure for the red nucleus test is as follows. Rats are anesthetized with chloral hydrate (400 mg/kg ip) and the femoral vein is catheterized for iv drug administration. Five-barrel micropipettes are stereotaxically positioned in the red nucleus. Typically, three to four of the five barrels are filled as follows: the recording barrel with 2M potassium citrate, the current balancing barrel with 4M NaCl, the drug barrel with 25 mM NMDA, and another drug barrel with 2.5 mM quisqualic acid (QA is only used in selectivity studies). NMDA is iontophoretically applied with an ejection current that is adjusted depending on the sensitivity of each individual red nucleus cell. The NMDA is cycled on and off (usually 30-60 sec. on and 60-120 sec. off) and the firing rate of the cell during each period is recorded. Once the baseline firing rate of the cell has been established, the test drug is administered iv. The effect of the drug on the NMDA-induced excitatory response of the red nucleus cell can be both qualitatively and quantitatively evaluated from the recordings and the raw data accumulated.

Row | Structure (SMILES) | pIC50 [1] | melting point | further results
1 | CC(Cc1ccccc1)n1nc(O)c2[nH]c3cc(Cl)ccc3c(=O)c2c1=O (stereo not drawn) [Example 5, 7-chloro-4-hydroxy-2-(1-methyl-2-phenylethyl)-1,2,5,10-tetrahydropyridazino[4,5-b]quinoline-1,10-dione] | 6.52 | – | –
2 | O=c1c2ccc(Cl)cc2[nH]c2c(O)nn(CC3(C(F)(F)F)C=CC=CC3)c(=O)c12 (stereo not drawn) (hydrate or solvate) [Example 12, 7-chloro-4-hydroxy-2-(1-trifluoromethylbenzyl)-1,2,5,10-tetrahydropyridazino[4,5-b]quinoline-1,10-dione] | – | 237 to 238 °C | –
3 | COC(=O)C1(Cn2nc(O)c3[nH]c4cc(Cl)ccc4c(=O)c3c2=O)C=CC=CC1 (stereo not drawn) (hydrate or solvate) [Example 8, 7-chloro-4-hydroxy-2-[1-(methyloxycarbonyl)-benzyl]-1,2,5,10-tetrahydropyridazino[4,5-b]quinoline-1,10-dione] | – | 242 to 244 °C | –
4 | CC(C(=O)Nc1ccccc1)n1nc(O)c2[nH]c3cc(Cl)ccc3c(=O)c2c1=O (stereo not drawn) [Example 1, 7-chloro-4-hydroxy-2-[1-(phenylcarbamoyl)ethyl]-1,2,5,10-tetrahydropyridazino[4,5-b]quinoline-1,10-dione] | 6.62 | > 250 °C | –
5 | CC(Cc1ccccc1)n1nc(O)c2[nH]c3cc(Cl)ccc3c(=O)c2c1=O (stereo not drawn) (hydrate or solvate) [Example 5, 7-chloro-4-hydroxy-2-(1-methyl-2-phenylethyl)-1,2,5,10-tetrahydropyridazino[4,5-b]quinoline-1,10-dione] | – | 241 to 244 °C | –
6 | COC(=O)[C@@H](C)n1nc(O)c2[nH]c3cc(Cl)ccc3c(=O)c2c1=O (hydrate or solvate) [Example 7, 7-chloro-4-hydroxy-2-[(R)-1-(methyloxycarbonyl)-ethyl]-1,2,5,10-tetrahydropyridazino[4,5-b]quinoline-1,10-dione] | – | 262 to 264 °C | –
7 | CCCC(C)n1nc(O)c2[nH]c3cc(Cl)ccc3c(=O)c2c1=O (stereo not drawn) [Example 4, 7-chloro-4-hydroxy-2-(1-methylbutyl)-1,2,5,10-tetrahydropyridazino[4,5-b]quinoline-1,10-dione] | 6.62 | 237 to 239 °C | infarct % volume change [2]: −22%; ID50, red nucleus test ([3]; as the meglumine salt (N=3), iv): 3.77 mg/kg
8 | C/C(=C\C(N)C(=O)O)CP(=O)(O)O (stereo not drawn) [CGP 37849] | – | – | ID50, red nucleus test ([3]; reference agents, intravenous): 1.7 mg/kg iv
9 | CC(CC(=O)N(C)c1ccccc1)n1nc(O)c2[nH]c3cc(Cl)ccc3c(=O)c2c1=O (stereo not drawn) [Example 11, 7-chloro-4-hydroxy-2-[1-methyl-2-(N-phenyl-N-methylcarbamoyl)ethyl]-1,2,5,10-tetrahydropyridazino[4,5-b]quinoline-1,10-dione] | – | 218 to 219 °C | –
10 | CC(C)CC(C)n1nc(O)c2[nH]c3cc(Cl)ccc3c(=O)c2c1=O (stereo not drawn) [Example 6, 7-chloro-4-hydroxy-2-(1,3-dimethylbutyl)-1,2,5,10-tetrahydropyridazino[4,5-b]quinoline-1,10-dione] | 6.54 | 238 to 240 °C | –
11 | C[C@H](C(=O)O)n1nc(O)c2[nH]c3cc(Cl)ccc3c(=O)c2c1=O [Example 13, 7-chloro-4-hydroxy-2-[(R)-1-carboxyethyl]-1,2,5,10-tetrahydropyridazino[4,5-b]quinoline-1,10-dione] | – | > 275 °C | –
12 | NC1CCN(O)C1=O (stereo not drawn) [HA-966] | – | – | ID50, red nucleus test ([3]; reference agents, intravenous): 7.9 mg/kg iv
13 | O=c1c2ccc(Cl)cc2[nH]c2c(O)nn(C3CCCCC3)c(=O)c12 [Example 2, 7-chloro-4-hydroxy-2-cyclohexyl-1,2,5,10-tetrahydropyridazino[4,5-b]quinoline-1,10-dione] | – | > 100 °C | pIC50 ([1]; rat cortex/hippocampus synaptic membranes, 20 nanomolar [3H]-glycine, 30 minutes at 4° C., pH 7.1, read-out: IC50, [3H]-glycine binding): 6.92
14 | CC(c1ccccc1)n1nc(O)c2[nH]c3cc(Cl)ccc3c(=O)c2c1=O (stereo not drawn) [Example 3] | 6.43 | – | –
15 | CC(CC(=O)Nc1ccccc1)n1nc(O)c2[nH]c3cc(Cl)ccc3c(=O)c2c1=O (stereo not drawn) [Example 10, 7-chloro-4-hydroxy-2-[1-methyl-2-(N-phenylcarbamoyl)ethyl]-1,2,5,10-tetrahydropyridazino[4,5-b]quinoline-1,10-dione] | – | > 250 °C | –
